Tests used:
rats [1] = assay: MES screen after oral administration to rats; conditions: oral administration to rats; for MES screen ED50: time t (h) per compound as in the table
mice [2] = assay: MES screen after intraperitoneal injection in mice; assay type: in vivo; conditions: intraperitoneal injection in mice; time t (h) per compound as in the table
mice [3] = system: mice
mice [4] = conditions: intraperitoneal injection in mice; time t (h) per compound as in the table
rats [5] = assay: neurotoxicity screen after oral administration to rats; conditions: oral administration to rats; time t (h) per compound as in the table

NC(=O)NN=Cc1ccc(OC(=O)c2ccc(Cl)cc2)cc1 [15c]
MES screen: number of rats out of 4 which were protected (rats [1]; dose 12.5 mg/kg, 0.25 h): 1
MES screen: number of rats out of 4 which were protected (rats [1]; dose 12.5 mg/kg, 1 h): 1
MES screen: number of rats out of 4 which were protected (rats [1]; dose 12.5 mg/kg, 4 h): 2

NC(=O)NN=Cc1ccc(OCc2ccccc2)cc1 [15d]
MES screen: number of rats out of 4 which were protected (rats [1]; dose 12.5 mg/kg, 1 h): 1
MES screen: number of rats out of 4 which were protected (rats [1]; dose 12.5 mg/kg, 2 h): 1

NC(=O)NN=Cc1ccc(Oc2ccccc2)cc1 [Compound 4a]
MES screen 0.5 h: number of rats out of 4 which were protected (rats [1]; dose 50 mg/kg): 3
MES screen 1 h: number of rats out of 4 which were protected (rats [1]; dose 50 mg/kg, 1 h): 4
MES screen 2 h: number of rats out of 4 which were protected (rats [1]; dose 50 mg/kg, 2 h): 4
MES screen 4 h: number of rats out of 4 which were protected (rats [1]; dose 50 mg/kg, 4 h): 4

NC(=O)NN=Cc1ccc(Oc2ccc(Cl)cc2)cc1 [Compound 4c]
MES screen 0.25 h: number of rats out of 4 which were protected (rats [1]; dose 50 mg/kg, 0.25 h): 4
MES screen 0.5 h: number of rats out of 4 which were protected (rats [1]; dose 50 mg/kg): 4
MES screen 1 h: number of rats out of 4 which were protected (rats [1]; dose 50 mg/kg, 1 h): 4
MES screen 2 h: number of rats out of 4 which were protected (rats [1]; dose 50 mg/kg, 2 h): 4
MES screen 4 h: number of rats out of 4 which were protected (rats [1]; dose 50 mg/kg, 4 h): 4

NC(=O)NN=Cc1ccc(Oc2ccc(Br)cc2)cc1 [Compound 4d]
MES screen 0.25 h: number of rats out of 4 which were protected (rats [1]; dose 50 mg/kg, 0.25 h): 1
MES screen 0.5 h: number of rats out of 4 which were protected (rats [1]; dose 50 mg/kg): 4
MES screen 1 h: number of rats out of 4 which were protected (rats [1]; dose 50 mg/kg, 1 h): 4
MES screen 2 h: number of rats out of 4 which were protected (rats [1]; dose 50 mg/kg, 2 h): 4
MES screen 4 h: number of rats out of 4 which were protected (rats [1]; dose 50 mg/kg, 4 h): 4

Cc1ccc(Oc2ccc(C=NNC(N)=O)cc2)cc1 [Compound 4f]
MES screen ED50 (mice [2]): 14.65 mg/kg
acPTZ screen ED50 (mice [3]; intraperitoneal injection in mice, time t (h) per compound as in the table): 88.55 mg/kg
neurotoxicity screen TD50 (mice [4]): 203.73 mg/kg
MES screen 0.25 h: number of rats out of 4 which were protected (rats [1]; dose 50 mg/kg, 0.25 h): 3
MES screen 0.5 h: number of rats out of 4 which were protected (rats [1]; dose 50 mg/kg): 4
MES screen 1 h: number of rats out of 4 which were protected (rats [1]; dose 50 mg/kg, 1 h): 4
MES screen 2 h: number of rats out of 4 which were protected (rats [1]; dose 50 mg/kg, 2 h): 4
MES screen 4 h: number of rats out of 4 which were protected (rats [1]; dose 50 mg/kg, 4 h): 4
MES screen ED50 (rats [1]): 3.43 mg/kg
neurotoxicity screen TD50 (rats [5]): >500 mg/kg

NC(=O)NN=Cc1ccc(Oc2ccc(-c3ccccc3)cc2)cc1 [Compound 4g]
MES screen 2 h: number of rats out of 4 which were protected (rats [1]; dose 12.5 mg/kg, 2 h): 3
MES screen 4 h: number of rats out of 4 which were protected (rats [1]; dose 12.5 mg/kg, 4 h): 1

COc1ccc(Oc2ccc(C=NNC(N)=O)cc2)cc1 [Compound 4h]
MES screen 0.5 h: number of rats out of 4 which were protected (rats [1]; dose 50 mg/kg): 4
MES screen 1 h: number of rats out of 4 which were protected (rats [1]; dose 50 mg/kg, 1 h): 4
MES screen 2 h: number of rats out of 4 which were protected (rats [1]; dose 50 mg/kg, 2 h): 4
MES screen 4 h: number of rats out of 4 which were protected (rats [1]; dose 50 mg/kg, 4 h): 4

NC(=O)NN=Cc1ccc(Oc2ccc(Oc3ccccc3)cc2)cc1 [Compound 4i]
MES screen 2 h: number of rats out of 4 which were protected (rats [1]; dose 50 mg/kg, 2 h): 1
MES screen 4 h: number of rats out of 4 which were protected (rats [1]; dose 50 mg/kg, 4 h): 1

N#Cc1ccc(Oc2ccc(C=NNC(N)=O)cc2)cc1 [Compound 4j]
MES screen 0.25 h: number of rats out of 4 which were protected (rats [1]; dose 12.5 mg/kg, 0.25 h): 2
MES screen 0.5 h: number of rats out of 4 which were protected (rats [1]; dose 12.5 mg/kg): 4
MES screen 1 h: number of rats out of 4 which were protected (rats [1]; dose 12.5 mg/kg, 1 h): 4
MES screen 2 h: number of rats out of 4 which were protected (rats [1]; dose 12.5 mg/kg, 2 h): 4
MES screen 4 h: number of rats out of 4 which were protected (rats [1]; dose 12.5 mg/kg, 4 h): 4

NC(=O)NN=Cc1ccc(Oc2ccc(F)cc2Br)cc1 [Compound 5m]
MES screen 0.25 h: number of rats out of 4 which were protected (rats [1]; dose 50 mg/kg, 0.25 h): 4
MES screen 0.5 h: number of rats out of 4 which were protected (rats [1]; dose 50 mg/kg): 4
MES screen 1 h: number of rats out of 4 which were protected (rats [1]; dose 50 mg/kg, 1 h): 4
MES screen 2 h: number of rats out of 4 which were protected (rats [1]; dose 50 mg/kg, 2 h): 4
MES screen 4 h: number of rats out of 4 which were protected (rats [1]; dose 50 mg/kg, 4 h): 4

Cc1cccc(Oc2ccc(C=NNC(N)=O)cc2)c1 [Compound 5o]
side effect in the scPTZ screen at the end of the 4 hours (mice [3]; intraperitoneal injection into mice, 300 mg/kg): continuous seizure activity followed by death
MES screen 0.5 h: number of rats out of 4 which were protected (rats [1]; dose 12.5 mg/kg): 4
MES screen 1 h: number of rats out of 4 which were protected (rats [1]; dose 12.5 mg/kg, 1 h): 4
MES screen 2 h: number of rats out of 4 which were protected (rats [1]; dose 12.5 mg/kg, 2 h): 3
MES screen 4 h: number of rats out of 4 which were protected (rats [1]; dose 12.5 mg/kg, 4 h): 2
MES screen ED50 (rats [1]): 3.07 mg/kg
neurotoxicity screen TD50 (rats [5]): >500 mg/kg

CCc1ccc(Oc2ccc(C=NNC(N)=O)cc2)cc1 [Compound 5p]
MES screen 0.5 h: number of rats out of 4 which were protected (rats [1]; dose 12.5 mg/kg): 2
MES screen 1 h: number of rats out of 4 which were protected (rats [1]; dose 12.5 mg/kg, 1 h): 4
MES screen 2 h: number of rats out of 4 which were protected (rats [1]; dose 12.5 mg/kg, 2 h): 4
MES screen 4 h: number of rats out of 4 which were protected (rats [1]; dose 12.5 mg/kg, 4 h): 4
MES screen ED50 (rats [1]): 6.48 mg/kg

CCCc1ccc(Oc2ccc(C=NNC(N)=O)cc2)cc1 [Compound 5q]
MES screen 0.5 h: number of rats out of 4 which were protected (rats [1]; dose 12.5 mg/kg): 1
MES screen 1 h: number of rats out of 4 which were protected (rats [1]; dose 12.5 mg/kg, 1 h): 2
MES screen 2 h: number of rats out of 4 which were protected (rats [1]; dose 12.5 mg/kg, 2 h): 4
MES screen 4 h: number of rats out of 4 which were protected (rats [1]; dose 12.5 mg/kg, 4 h): 2
MES screen ED50 (rats [1]): 2.63 mg/kg
neurotoxicity screen TD50 (rats [5]): >500 mg/kg
